The test system of assay [1] is human TNF-α production by PBMC. Description: TNF-α assay (LPS-stimulated PBMC, sandwich ELISA). Particulars: PBMC stimulated with LPS 1 μg/ml, 72 hours, read-out: TNF α (IC50 in the TNFα assay). In kind it is cell-based. The procedure: Peripheral blood mononuclear cells (herein referred as PBMC), in response to stimulation by lipopolysaccharide (hereinafter LPS), a gram-negative bacterial endotoxin, produce various […], in particular human TNF-α. Inhibition of the activation of PBMC can therefore be measured by the level of suppression of the production of TNF-α by PBMC in response to stimulation by LPS.
Such inhibition measurement was performed as follows: PBMC were isolated from heparinized peripheral blood by density gradient centrifugation over Lymphoprep (commercially available from Nycomed, Norway). LPS was then added to the PMBC suspension in complete medium (10^6 cells/ml) at a final concentration of 1 μg/ml. The pyrido[3,2-d]pyrimidine derivative to be tested was added at different concentrations (0.1 μM, 1 μM and 10 μM) and the cells were incubated at 37° C. for 72 hours in 5% CO2. The supernatants were collected, then TNF-α concentrations were measured with respectively an anti-TNF-α antibody in a sandwich ELISA (Duo Set ELISA human TNFα, commercially available from R&D Systems, United Kingdom). The colorimetric reading of the ELISA was measured by a Multiskan RC plate reader (commercially available from ThermoLabsystems, Finland) at 450 nm (reference wavelength: 690 nm). Data analysis was performed with Ascent software 2.6. (also from ThermoLabsystems, Finland): a standard curve (recombinant human TNFα) was drawn and the amount (pg/ml) of each sample on the standard curve was determined.
The % suppression of human TNFα production by the pyrido[2,3-d]pyrimidine derivatives of the invention was calculated using the formula: […]
(In an ELISA, binding on a coated surface is turned into a signal by an enzyme label.)

Assay [2] relates to mixed lymphocyte reaction (PBMC with irradiated allogeneic PBMC or RPMI1788 stimulator cells). The assay can be described thus: Mixed lymphocyte reaction (MLR) assay. It counts as cell-based, human. Particulars: read-out: MLR (IC50, lowest concentration giving 50% suppression of the MLR). The procedure: Pyrido[2,3-d]pyrimidine derivatives were first dissolved (10 mM) in dimethyl-sulfoxide (hereinafter referred as DMSO) and further diluted in culture medium before use for the following in vitro experiments. The commercially available culture medium consisted of RPMI-1640+10% foetal calf serum (FCS). Some pyrido[2,3-d]pyrimidine derivatives described herein were tested in the following mixed lymphocyte reaction (MLR) assay.
Peripheral blood mononuclear cells (hereinafter referred as PBMC) were isolated from heparinized peripheral blood by density gradient centrifugation over Lymphoprep (Nycomed, Maorstua, Norway). Allogeneic PBMC or Eppstein-Barr Virus-transformed human B cells [commercially available under the trade name RPMI1788 (ATCC name CCL156)] which strongly express B7-1 and B7-2 antigens were used as stimulator cells after irradiation with 30 Gy. MLR was performed in triplicate wells. After 5 days incubation at 37° C., 1 μCi [^3H]-thymidine was added to each cup. After a further 16 hours incubation, cells were harvested and counted in a β-counter. Inhibition of proliferation by a compound described in some of the present examples was counted while using the formula: […]
wherein cpm is the thymidine count per minute. The MLR assay is regarded by those skilled in the art as an in vitro analogue of the transplant rejection since it is based on the recognition of allogeneic major histocompatibility antigens on the stimulator leukocytes, by responding lymphocytes.

In assay [3] the test system is human IL-1 β production by PBMC. Description: IL-1 β assay (LPS-stimulated PBMC, sandwich ELISA). It counts as cell-based. Conditions: PBMC stimulated with LPS 1 μg/ml, 72 hours, read-out: IC50 in the IL-1 β test (50% suppression of human IL-1 β). As for the experimental part: Peripheral blood mononuclear cells (herein referred as PBMC), in response to stimulation by lipopolysaccharide (LPS), a gram-negative bacterial endotoxin, produce various […], in particular human IL-1 β. Inhibition of the activation of PBMC can therefore be measured by the level of suppression of the production of IL-1 β by PBMC in response to stimulation by LPS.
Such inhibition measurement was performed as follows: PBMC were isolated from heparinized peripheral blood by density gradient centrifugation over Lymphoprep (commercially available from Nycomed, Norway). LPS was then added to the PMBC suspension in complete medium (10^6 cells/ml) at a final concentration of 1 μg/ml. […] The supernatants were collected, then IL-1 β concentrations were measured with an anti-IL-1 β antibody in a sandwich ELISA. The calorimetric reading of the ELISA was measured by a Multiskan RC plate reader (commercially available from ThermoLabsystems, Finland) at 450 nm (reference wavelength: 690 nm). […] (also from ThermoLabsystems, Finland): a standard curve (recombinant human IL-1 β) was drawn and the amount (pg/ml) of each sample on the standard curve was determined.
The % suppression of human IL-1 β by the pyrido[2,3-d]pyrimidine derivatives of this invention was calculated using the formula: […]

Setting [4] is: Homo sapiens, RPMI-1788, 5 days incubation then 16 h [3H]-thymidine.
The mark [5] stands for this setting: 5 days incubation then 16 h [3H]-thymidine.

pIC50: −log10 of the molar value. Where a name gives a salt, the structure may show the parent alone. Read-outs that look alike come from different tables or passages of the source.

In the case of `CC(C)Oc1nc(N)nc2ncc(-c3cccs3)cc12` [Example 21, 2-amino-4-isopropoxy-6-(2-thienyl)pyrido[2,3-d]pyrimidine], the pIC50 in assay [1] (Homo sapiens) is 6.10.

With `COc1ccc(-c2cnc3nc(N)nc(NC(C)C)c3c2)cc1OC` [Example 31, 2-amino-4-isopropylamino-6-(3,4-dimethoxyphenyl)pyrido[2,3-d]pyrimidine], the pIC50 in assay [1] (Homo sapiens) was 6.15; in assay [2] (setting [4]), 5.24. As to `CCC(C)Oc1nc(N)nc2ncc(-c3ccc(OC)c(OC)c3)cc12` (centres unmarked) [Example 37, hydrochloride salt of 2-amino-4-(sec-butoxy)-6-(3,4-dimethoxyphenyl)-pyrido[2,3-d]pyrimidine], the values for the pIC50 in assay [1] and in assay [2] (setting [5]) were 6.30 and 5.49, respectively. On to `COc1ccc(-c2cnc3nc(N)nc(N4CCN(C(=O)OCc5ccccc5)CC4)c3c2)cc1OC` [Example 15, 2-amino-6-(3,4-dimethoxyphenyl)-4-[(N-benzyloxycarbonyl)-piperazin-1-yl]-pyrido[2,3-d]pyrimidine], for which the results for the pIC50 in assay [3], in assay [1] and in assay [2] (setting [5]) were 5.15, 6.05 and 6.10, respectively. As for `Cc1ccc(NC(=O)N2CCN(c3nc(N)nc4ncc(Br)cc34)CC2)cc1` [Example 7, 2-amino-4-[N-4-methylphenylcarbamoyl-piperazin-1-yl]-6-bromo-pyrido[2,3-d]pyrimidine], the pIC50 in assay [2] (setting [5]) was 6.15. Turning to `Cc1ccc(-c2cnc3nc(N)nc(OC(C)C)c3c2)cc1C` [Example 38, 2-amino-4-isopropoxy-6-(3,4-dimethylphenyl)-pyrido[2,3-d]pyrimidine], in assay [1] (Homo sapiens), the pIC50 is 6.05.

Take `COc1ccc(-c2cnc3nc(N)nc(Nc4cccc(Br)c4)c3c2)cc1OC` [Example 42, 2-amino-4-(3-bromo-anilino)-6-(3,4-dimethoxyphenyl)pyrido[2,3-d]pyrimidine]: the pIC50 in assay [3] (Homo sapiens) is 5.15; in assay [1] (Homo sapiens), 5.48; in assay [2] (setting [4]), 5.48. Take `COc1ccc(-c2cnc3nc(N)nc(N4CCOCC4)c3c2)cc1OC` [Example 4, 2-amino-4-morpholino-6-(3,4-dimethoxyphenyl)-pyrido[2,3-d]pyrimidine]: the pIC50 in assay [1] (Homo sapiens) was 5.49; in assay [2] (setting [4]) it was 5.32.

As for “2-amino-6-(3,4-dimethoxyphenyl)-4-(4-N-methyl piperidinoxy)pyrido[2,3-d]pyrimidine [Example 34]”, in assay [1], the pIC50 was 5.17.

As to `COc1ccc(-c2cnc3nc(N)nc(N4CCNCC4)c3c2)cc1OC` [Example 22, 2-amino-4-(piperazin-1-yl)-6-(3,4-dimethoxyphenyl)-pyrido[2,3-d]pyrimidine], in assay [1] (Homo sapiens), the pIC50 is 5.09.

Consider `COc1ccc(-c2cnc3nc(N)nc(NCc4ccccc4)c3c2)cc1OC` [Example 43, 2-amino-4-(benzylamino)-6-(3,4-dimethoxyphenyl)pyrido[2,3-d]pyrimidine], for which the pIC50 in assay [2] (setting [4]) is 5.30.

For `CCCNc1nc(N)nc2ncc(-c3ccc(OC)c(OC)c3)cc12` [Example 30, 2-amino-4-n-propylamino-6-(3,4-dimethoxyphenyl)pyrido[2,3-d]pyrimidine], the pIC50 in assay [1] (Homo sapiens) was 5.40; in assay [2] (setting [4]) it was 5.28.

As for `CCC(C)Oc1nc(N)nc2ncc(-c3ccc(OC)c(OC)c3)cc12` (centres unmarked) [Example 36, 2-amino-4-(sec-butoxy)-6-(3,4-dimethoxyphenyl)-pyrido[2,3d]pyrimidine], the results for the pIC50 in assay [1] and in assay [2] (setting [5]) were 6.22 and 5.59, respectively. For `COc1ccc(-c2cnc3nc(N)nc(OC4CCOCC4)c3c2)cc1OC` [Example 33, 2-amino-4-(tetrahydro-2H-pyran-4-yloxy)-6-(3,4-dimethoxyphenyl)pyrido[2,3-d]pyrimidine], the pIC50 in assay [1] (Homo sapiens) was 6.22; in assay [2] (setting [4]), 5.62. As to `COc1ccc(-c2cnc3nc(N)nc(N4CCCCC4)c3c2)cc1OC` [Example 32, 2-amino-4-(1-piperidino)-6-(3,4-dimethoxyphenyl)pyrido[2,3-d]pyrimidine], the results for the pIC50 in assay [1] and in assay [2] (setting [5]) were 6.05 and 5.72, respectively. Taken in the same sequence, the figures for `COc1ccc(-c2cnc3nc(N)nc(OC)c3c2)cc1OC` [Example 35, 2-amino-4-methoxy-6-(3,4-dimethoxyphenyl)pyrido[2,3d]pyrimidine] were 6.05 and 5.21.

As to `COc1ccc(-c2cnc3nc(N)nc(OC(C)C)c3c2)cc1OC` [Example 2, 2-amino-4-isopropoxy-6-(3,4-dimethoxyphenyl)-pyrido[2,3-d]pyrimidine], the results for the pIC50 in assay [1] (Homo sapiens) and in assay [2] (setting [4]) were 7.05 and 6.05, respectively. For `COc1ccc(-c2cnc3nc(N)nc(N4CCN(Cc5ccccc5)CC4)c3c2)cc1OC` [Example 23, 2-amino-4-(4-benzylpiperazin-1-yl)-6-(3,4-dimethoxyphenyl)-pyrido[2,3-d]pyrimidine], the pIC50 was 6.15 in assay [1] (Homo sapiens) and 5.14 in assay [2] (setting [4]). As to `COc1ccc(-c2cnc3nc(N)nc(N4CCN(C(=O)COc5ccccc5)CC4)c3c2)cc1OC` [Example 10, 2-amino-4-(N-phenoxyacetyl-N-piperazin-1-yl)-6-(3,4-dimethoxyphenyl)pyrido[2,3d]pyrimidine], the pIC50 is 5.77 in assay [1] and 6.52 in assay [2] (setting [5]). As to `COc1ccc(-c2cnc3nc(N)nc(NCCc4ccccc4)c3c2)cc1OC` [Example 44, 2-amino-4-(phenylethylamino)-6-(3,4-dimethoxyphenyl)pyrido[2,3-d]pyrimidine], the pIC50 in assay [1] (Homo sapiens) is 5.38; in assay [2] (setting [4]), 5.37.

Consider `COc1ccc(-c2cnc3nc(N)nc(N4CCN(C(=O)Nc5ccc(C)cc5)CC4)c3c2)cc1OC` [Example 12, 2-amino-4-(N-4-methylphenylcarbamoyl-piperazin-1-yl]-6-(3,4-dimethoxyphenyl)pyrido[2,3-d]pyrimidine], for which the pIC50 in assay [1] was 5.31; in assay [2] (setting [5]), 6.40.

(Values after patent US20080312227A1, “Substituted Pyrido(2,3-D) Pyrimidine Derivatives Useful as Medicines for the Treatment of Autoimmune Disorders” (4 AZA BIOSCIENCE NV, priority 2005, published 2008).)
